Data published in patent US6462038B1, “Androgen receptor modulator compounds and methods” (Ligand Pharmaceuticals, Inc., priority 1999, dated 2002).
Read-outs that look alike come from different tables or passages of the source.

Tests used:
Assay type in all cases: cell-based
ER [1] = molecular target: T1, ER (Homo sapiens, UniProt P03372); assay: co-transfection assay, ER agonist
T1 construct: expressed in transfected cells; host or cells: CV-1 cells
Experimental: (§1) CV-1 cells (African green monkey kidney fibroblasts) were cultured in the presence of Dulbecco's Modified Eagle Medium (DMEM) supplemented with 10% charcoal resin-stripped fetal bovine serum (CH-FBS) then transferred to 96-well microtiter plates one day prior to transfection.
(§2) Three to four replicates were used for each sample.
(§3) After 40 hours, the cells were washed with PBS, lysed with a Triton X-100-based buffer and assayed for LUC and β-Gal activities using a luminometer or spectrophotometer, respectively. For each replicate, the normalized response (NR) was calculated as: […]

PR = molecular target: T2, PR (Homo sapiens, UniProt P06401); assay: co-transfection assay, PR antagonist (in presence of progesterone)
T2 construct: expressed in transfected cells; host or cells: CV-1 cells
T2 sequence (P06401 1-933): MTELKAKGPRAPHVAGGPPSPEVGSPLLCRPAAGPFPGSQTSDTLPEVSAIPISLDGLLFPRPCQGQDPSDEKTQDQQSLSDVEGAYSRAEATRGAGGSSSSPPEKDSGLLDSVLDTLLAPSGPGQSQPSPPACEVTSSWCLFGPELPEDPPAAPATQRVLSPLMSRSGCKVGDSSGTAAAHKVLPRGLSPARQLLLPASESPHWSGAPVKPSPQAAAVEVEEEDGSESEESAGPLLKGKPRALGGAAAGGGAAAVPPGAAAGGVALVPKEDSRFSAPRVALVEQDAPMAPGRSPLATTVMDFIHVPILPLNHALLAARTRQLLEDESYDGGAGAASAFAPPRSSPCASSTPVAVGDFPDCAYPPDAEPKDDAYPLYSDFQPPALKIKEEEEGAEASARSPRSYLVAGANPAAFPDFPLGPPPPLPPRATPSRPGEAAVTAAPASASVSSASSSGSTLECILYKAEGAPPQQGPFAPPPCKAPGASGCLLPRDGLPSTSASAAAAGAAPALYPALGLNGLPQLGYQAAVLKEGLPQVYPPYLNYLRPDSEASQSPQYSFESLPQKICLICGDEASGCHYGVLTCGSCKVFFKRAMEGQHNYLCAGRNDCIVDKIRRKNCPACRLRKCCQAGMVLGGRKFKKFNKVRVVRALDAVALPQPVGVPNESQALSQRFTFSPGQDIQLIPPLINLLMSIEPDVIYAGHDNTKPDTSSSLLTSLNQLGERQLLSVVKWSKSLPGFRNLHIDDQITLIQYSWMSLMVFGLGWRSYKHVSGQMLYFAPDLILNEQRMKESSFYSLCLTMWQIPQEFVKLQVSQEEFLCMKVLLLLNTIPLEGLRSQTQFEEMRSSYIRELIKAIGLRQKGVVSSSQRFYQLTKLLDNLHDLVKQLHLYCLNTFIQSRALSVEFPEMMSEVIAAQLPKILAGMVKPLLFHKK
Experimental: as §1, §2, §3

hAR = molecular target: T3, hAR (Homo sapiens, UniProt P10275); assay: co-transfection assay, AR agonist, CV-1 cells; details: for AR Agonist CV-1 Cells Efficacy (%): hAR in CV-1 cells, relative to maximum LUC production by reference agonist
T3 construct: expressed in transfected cells; host or cells: CV-1 cells (African green monkey kidney fibroblasts)
T3 sequence (P10275 1-920): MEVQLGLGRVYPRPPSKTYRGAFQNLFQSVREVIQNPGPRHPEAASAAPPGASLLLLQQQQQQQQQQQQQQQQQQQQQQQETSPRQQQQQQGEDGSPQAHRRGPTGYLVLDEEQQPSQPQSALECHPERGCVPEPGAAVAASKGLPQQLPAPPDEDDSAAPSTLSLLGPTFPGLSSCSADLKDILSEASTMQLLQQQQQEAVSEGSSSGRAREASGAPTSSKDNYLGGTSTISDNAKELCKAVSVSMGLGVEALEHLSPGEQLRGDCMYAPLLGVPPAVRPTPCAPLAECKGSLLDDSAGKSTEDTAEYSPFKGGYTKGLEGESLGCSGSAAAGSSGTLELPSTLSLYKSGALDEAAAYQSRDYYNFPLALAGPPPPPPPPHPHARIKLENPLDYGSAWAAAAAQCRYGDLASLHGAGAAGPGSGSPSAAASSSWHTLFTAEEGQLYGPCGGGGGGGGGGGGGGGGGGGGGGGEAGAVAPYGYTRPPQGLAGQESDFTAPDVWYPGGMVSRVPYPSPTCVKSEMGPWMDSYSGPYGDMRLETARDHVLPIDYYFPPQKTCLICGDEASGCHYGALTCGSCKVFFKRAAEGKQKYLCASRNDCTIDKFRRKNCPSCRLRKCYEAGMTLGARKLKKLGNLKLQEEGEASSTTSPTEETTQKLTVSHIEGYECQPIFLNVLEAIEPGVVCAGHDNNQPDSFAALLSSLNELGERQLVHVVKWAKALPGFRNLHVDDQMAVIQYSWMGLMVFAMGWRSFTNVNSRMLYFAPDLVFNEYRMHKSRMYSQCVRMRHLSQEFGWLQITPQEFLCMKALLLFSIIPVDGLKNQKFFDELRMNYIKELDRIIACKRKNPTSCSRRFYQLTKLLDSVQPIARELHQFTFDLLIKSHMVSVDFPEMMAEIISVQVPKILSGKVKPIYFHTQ

ER [2] = molecular target: T1, ER; assay: co-transfection assay, ER antagonist
Experimental: as §1, §2, §3

GR = molecular target: T4, GR (Homo sapiens, UniProt P04150); assay: co-transfection assay, GR antagonist
T4 construct: expressed in transfected cells; host or cells: CV-1 cells
T4 sequence (P04150 1-777): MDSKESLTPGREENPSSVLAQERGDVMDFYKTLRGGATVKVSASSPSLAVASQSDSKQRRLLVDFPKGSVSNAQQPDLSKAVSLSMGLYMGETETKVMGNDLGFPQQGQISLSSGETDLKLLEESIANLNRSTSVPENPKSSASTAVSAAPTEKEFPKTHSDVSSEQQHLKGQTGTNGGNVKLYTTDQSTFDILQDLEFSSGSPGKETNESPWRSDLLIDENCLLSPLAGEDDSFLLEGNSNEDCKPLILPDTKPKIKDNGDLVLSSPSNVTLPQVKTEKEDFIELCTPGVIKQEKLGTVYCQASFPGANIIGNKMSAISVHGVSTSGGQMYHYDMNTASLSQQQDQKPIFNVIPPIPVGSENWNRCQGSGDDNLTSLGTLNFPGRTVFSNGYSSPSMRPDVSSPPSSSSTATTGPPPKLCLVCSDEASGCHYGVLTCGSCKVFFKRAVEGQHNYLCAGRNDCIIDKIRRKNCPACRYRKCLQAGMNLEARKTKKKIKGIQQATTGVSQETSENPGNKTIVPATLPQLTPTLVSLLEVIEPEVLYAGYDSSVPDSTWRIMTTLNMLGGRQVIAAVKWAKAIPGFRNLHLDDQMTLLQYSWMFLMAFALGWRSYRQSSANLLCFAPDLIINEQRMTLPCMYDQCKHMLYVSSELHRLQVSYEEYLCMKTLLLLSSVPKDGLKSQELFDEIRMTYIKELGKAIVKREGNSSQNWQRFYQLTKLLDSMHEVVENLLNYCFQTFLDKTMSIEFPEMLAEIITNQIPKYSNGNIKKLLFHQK
Experimental: as §1, §2, §3

[3] = read-out: AR Potency Agon, Table 2

T1 sequence (P03372 whole entry): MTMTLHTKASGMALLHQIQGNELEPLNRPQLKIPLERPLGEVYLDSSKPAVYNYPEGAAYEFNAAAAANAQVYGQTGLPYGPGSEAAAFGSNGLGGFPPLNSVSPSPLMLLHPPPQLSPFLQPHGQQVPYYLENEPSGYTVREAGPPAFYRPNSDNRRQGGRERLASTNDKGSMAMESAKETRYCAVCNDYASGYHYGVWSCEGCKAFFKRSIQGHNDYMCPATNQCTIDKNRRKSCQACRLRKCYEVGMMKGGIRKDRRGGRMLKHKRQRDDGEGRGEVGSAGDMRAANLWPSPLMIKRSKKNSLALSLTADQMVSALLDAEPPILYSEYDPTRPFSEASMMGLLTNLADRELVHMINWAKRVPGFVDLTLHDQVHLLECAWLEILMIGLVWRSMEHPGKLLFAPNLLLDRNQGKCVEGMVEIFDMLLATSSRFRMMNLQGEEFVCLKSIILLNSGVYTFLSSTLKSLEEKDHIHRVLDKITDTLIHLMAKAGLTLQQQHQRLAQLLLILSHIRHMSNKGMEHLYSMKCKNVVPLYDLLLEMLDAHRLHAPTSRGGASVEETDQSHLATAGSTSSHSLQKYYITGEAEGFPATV

Structure (SMILES): CN1CCOc2cc3c(cc21)c(C(F)(F)F)cc(=O)n3C [Compound 102, 1,2,3,6-Tetrahydro-1,6-dimethyl-9-(trifluoromethyl)-7H-[1,4]oxazino[3,2-g]quinolin-7-one]
- EC50 (ER [1]): > 10 µM
- IC50 (PR): 4.1 µM
- EC50 (hAR): > 10 µM
- AR Agonist CV-1 Cells Efficacy (%) (hAR): na^1 (na = not active (i.e. efficacy of < 20 and potency of > 10,000 nM for the cotransfection assay, and Ki > 1000 nM for the binding assay))
- EC50 (hAR; [3]): > 10 µM
- IC50 (ER [2]): 5.9 µM
- IC50 (GR): 3.2 µM

Structure (SMILES): CCN1CCOc2cc3c(cc21)c(C(F)(F)F)cc(=O)n3C [Compound 104, 1-Ethyl-1,2,3,6-tetrahydro-6-methyl-9-(trifluoromethyl)-7H-[1,4]oxazino[3,2-g]quinolin-7-one]
- EC50 (ER [1]): > 10 µM
- IC50 (PR): 2 µM
- EC50 (hAR): > 10 µM
- AR Agonist CV-1 Cells Efficacy (%) (hAR): na (na = not active (i.e. efficacy of < 20 and potency of > 10,000 nM for the cotransfection assay, and Ki > 1000 nM for the binding assay))
- EC50 (hAR; [3]): > 10 µM
- IC50 (ER [2]): > 10 µM
- IC50 (GR): 0.83 µM

Structure (SMILES): O=c1cc(C(F)(F)F)c2cc3c(cc2[nH]1)OCCN3CC(F)(F)F [Compound 105, 1,2,3,6-Tetrahydro-1-(2,2,2-trifluoroethyl)-9-(trifluoromethyl)-7H-[1,4]oxazino[3,2-g]quinolin-7-one]
- EC50 (ER [1]): > 10 µM
- IC50 (PR): 3 µM
- IC50 (ER [2]): > 10 µM
- IC50 (GR): 6.7 µM

Structure (SMILES): O=C1COc2cc3[nH]c(=O)cc(C(F)(F)F)c3cc2N1CC(F)(F)F [Compound 137, 1,6-Dihydro-1-(2,2,2-trifluoroethyl)-9-(trifluoromethyl)-3H-[1,4]oxazino[3,2-g]-quinolin-2,7-dione]
- EC50 (ER [1]): > 10 µM
- IC50 (PR): > 10 µM
- EC50 (hAR): > 10 µM
- AR Agonist CV-1 Cells Efficacy (%) (hAR): na (na = not active (i.e. efficacy of < 20 and potency of > 10,000 nM for the cotransfection assay, and Ki > 1000 nM for the binding assay))
- EC50 (hAR; [3]): > 10 µM
- IC50 (ER [2]): > 10 µM
- IC50 (GR): > 10 µM
